Emax, EC50 and Ki data for four compounds are collected here from patent US20230265151A1, “GIP/GLP1 CO-AGONIST COMPOUNDS” (priority 2020, published 2023).

One assay addresses T1, hGIPR (Homo sapiens, UniProt P48546).
T1 construct: expressed in transfected cells
T1 sequence (P48546 22-466): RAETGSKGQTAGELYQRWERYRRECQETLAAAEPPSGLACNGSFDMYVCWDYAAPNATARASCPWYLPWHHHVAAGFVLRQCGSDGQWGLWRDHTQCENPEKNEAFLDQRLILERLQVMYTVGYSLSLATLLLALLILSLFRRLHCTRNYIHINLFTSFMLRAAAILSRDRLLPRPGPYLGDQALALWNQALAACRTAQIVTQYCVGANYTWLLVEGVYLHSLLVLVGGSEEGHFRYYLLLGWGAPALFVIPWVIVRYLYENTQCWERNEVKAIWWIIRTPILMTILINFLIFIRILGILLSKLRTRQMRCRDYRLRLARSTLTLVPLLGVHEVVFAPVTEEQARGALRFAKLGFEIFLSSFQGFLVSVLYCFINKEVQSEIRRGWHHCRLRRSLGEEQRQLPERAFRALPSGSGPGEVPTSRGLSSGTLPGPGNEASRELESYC
Put plainly: Functional cAMP formation (HTRF) in HEK-293 clonal cells expressing hGIPR, 0.1% bovine casein, without or with 1.0% human serum albumin. To be noted: for Emax: read-out: hGIPR Emax, % ± SEM; for EC50: geometric mean, read-out: hGIPR EC50, nM (SEM, n). The assay is classed as cell-based. An outline of the steps: (§1)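 Readings of the HTRF 665/620 nm ratio, which falls as cAMP rises, were converted to nM cAMP using a standard curve after 30 min peptide exposure at 37° C.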
In general terms: Changes in cAMP serve as a functional read-out for many G protein-coupled receptors.

A further assay addresses hGLP-1R (Homo sapiens, UniProt P43220). In words: Functional cAMP formation (HTRF) in HEK-293 clonal cells expressing hGLP-1R, 0.1% bovine casein, without or with 1.0% human serum albumin. The arrangement: expressed in transfected cells. To be noted: for Emax: percent of maximal response to GLP-1(7-36)NH2, read-out: hGLP-1R Emax, % ± SEM; for EC50: geometric mean, read-out: hGLP-1R EC50, nM (SEM, n). The format is cell-based. An outline of the steps:
as §1

For another assay, the target named is T2, hGCGR (Homo sapiens, UniProt P47871).
T2 construct: expressed in transfected cells
Put plainly: Functional cAMP formation (HTRF) in HEK-293 clonal cells expressing hGCGR, 0.1% bovine casein, without or with 1.0% human serum albumin. To be noted: read-out: hGCGR EC50, nM (SEM, n). The assay is classed as cell-based. An outline of the steps: as §1

Assay [1] deals with T3, human GIP receptor (hGIPR) (Homo sapiens, UniProt P48546).
T3 construct: expressed in transfected cells; crude membranes
T3 sequence (P48546 22-466): T1 sequence (P48546 22-466)
Put plainly: [125I]-GIP binding, SPA with membranes of CHO cells expressing hGIPR. To be noted: human GIPR; geometric mean (SEM, n); read-out: Binding Affinity Ki, nM (SEM, n) hGIPR.

The target of assay [2] is T4, human GLP-1 receptor (hGLP-1R) (Homo sapiens, UniProt P43220).
T4 construct: expressed in transfected cells; crude membranes
Put plainly: [125I]-GLP-1 binding, SPA with membranes of HEK293 cells expressing hGLP-1R. To be noted: human GLP-1R; geometric mean (SEM, n); read-out: Binding Affinity Ki, nM (SEM, n) hGLP-1R.

[3] abbreviates: HEK293, cAMP, 37° C., 0.1% bovine casein and 1.0% human serum albumin, percent of maximal response to GIP(1-42)NH2.
Where [4] appears, read: cAMP, 37° C., 0.1% bovine casein (no human serum albumin).
Setting [5] is: HEK293, cAMP, 37° C., 0.1% bovine casein, arithmetic mean.
[6] abbreviates: cAMP, 37° C., 0.1% bovine casein (no human serum albumin), geometric mean.
The mark [7] stands for this setting: cAMP, 37° C., 0.1% bovine casein and 1.0% human serum albumin, geometric mean (SEM, n).
Setting [8] is: HEK293, 0.1% bovine casein and 1.0% human serum albumin, 37° C., percent of maximal response to GIP(1-42)NH2.
Where [9] appears, read: cAMP, incubated at 37° C., 0.1% bovine casein (no human serum albumin).
Setting [10] is: 0.1% bovine casein and 1.0% human serum albumin, 37° C., geometric mean.
The mark [11] stands for this setting: cAMP, incubated at 37° C., 0.1% bovine casein (no human serum albumin), geometric mean.
The mark [12] stands for this setting: 0.1% bovine casein and 1.0% human serum albumin, 37° C.

In general, Emax refers to the size of the effect at its maximum, as opposed to the concentration needed. In general, EC50 refers to the midpoint of the concentration-response curve. Usually Ki stands for the equilibrium dissociation constant of an inhibitor or competing ligand from its target.

Like-named read-outs stand apart in the source and are kept apart here.

T4 sequence (P43220 24-463): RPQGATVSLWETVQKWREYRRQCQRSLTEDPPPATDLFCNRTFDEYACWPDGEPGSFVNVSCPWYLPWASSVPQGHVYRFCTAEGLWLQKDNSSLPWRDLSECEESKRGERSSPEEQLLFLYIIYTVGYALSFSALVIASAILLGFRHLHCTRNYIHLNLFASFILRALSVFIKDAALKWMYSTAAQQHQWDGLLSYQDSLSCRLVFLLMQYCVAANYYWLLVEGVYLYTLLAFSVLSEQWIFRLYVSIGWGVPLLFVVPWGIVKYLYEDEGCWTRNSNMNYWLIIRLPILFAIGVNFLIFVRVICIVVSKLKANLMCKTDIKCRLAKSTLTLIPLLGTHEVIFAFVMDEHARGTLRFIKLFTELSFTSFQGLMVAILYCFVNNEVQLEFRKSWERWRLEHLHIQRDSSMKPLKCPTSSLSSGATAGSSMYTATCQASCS
Chain of hGLP-1R (P43220 24-463): as above
T2 sequence (P47871 26-477): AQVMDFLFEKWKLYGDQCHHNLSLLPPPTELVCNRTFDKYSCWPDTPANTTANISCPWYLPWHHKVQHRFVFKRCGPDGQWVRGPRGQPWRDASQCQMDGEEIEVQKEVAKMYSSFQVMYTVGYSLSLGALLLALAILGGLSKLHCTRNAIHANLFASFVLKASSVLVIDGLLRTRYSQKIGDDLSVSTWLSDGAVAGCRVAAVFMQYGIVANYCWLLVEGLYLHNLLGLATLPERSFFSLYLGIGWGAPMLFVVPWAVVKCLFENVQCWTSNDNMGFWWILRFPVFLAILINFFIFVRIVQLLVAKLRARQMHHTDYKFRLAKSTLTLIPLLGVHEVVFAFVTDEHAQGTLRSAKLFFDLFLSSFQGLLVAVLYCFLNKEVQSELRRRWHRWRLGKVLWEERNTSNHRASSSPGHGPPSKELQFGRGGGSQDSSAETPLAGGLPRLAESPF

On to `CCCCCCCCCCCC(=O)N[C@@H](CCC(=O)NCCOCCOCC(=O)NCCOCCOCC(=O)NCCCC[C@H](NC(=O)[C@H](CCCN)NC(=O)[C@H](CC(=O)O)NC(=O)[C@H](CC(C)C)NC(=O)[C@](C)(CC(C)C)NC(=O)[C@@H](NC(=O)C(C)(C)NC(=O)[C@H](CCCCNC(=O)COCCOCCNC(=O)COCCOCCNC(=O)CC[C@H](NC(=O)CCCCCCCCCCC)C(=O)O)NC(=O)[C@H](CC(=O)O)NC(=O)[C@H](CO)NC(=O)[C@@H](NC(=O)[C@](C)(Cc1ccccc1F)NC(=O)[C@@H](NC(=O)CNC(=O)[C@H](CCC(=O)O)NC(=O)C(C)(C)NC(=O)[C@@H](N)Cc1ccc(O)cc1)[C@@H](C)O)[C@@H](C)O)[C@@H](C)CC)C(=O)N[C@@H](C)C(=O)N[C@@H](CCC(N)=O)C(=O)NC(C)(C)C(=O)N[C@@H](Cc1ccncc1)C(=O)N[C@@H](Cc1ccccc1)C(=O)N[C@H](C(=O)N[C@H](CCC(=O)O)C(=O)N[C@@](C)(Cc1ccc(O)cc1)C(=O)N[C@@H](CC(C)C)C(=O)N[C@H](C(=O)N[C@@H](CCC(=O)O)C(=O)NCC(=O)NCC(=O)N1CCC[C@H]1C(=O)N[C@@H](CO)C(=O)N[C@@H](CO)C(=O)NCC(=O)N[C@@H](C)C(=O)N1CCC[C@H]1C(=O)N1CCC[C@H]1C(=O)N1CCC[C@H]1C(=O)N[C@@H](CO)C(N)=O)[C@@H](C)CC)[C@@H](C)CC)C(=O)O` [Example 415], for which the Emax amounted to 93.9% at hGIPR (setting [3]) and 109% on hGLP-1R (setting [5]). In addition, the EC50 was 0.00991 nM at hGIPR (setting [4]), 0.122 nM on hGLP-1R (setting [4]), greater than 9950 nM at hGCGR (setting [6]) and greater than 9950 nM at hGCGR (setting [7]). Besides, the Ki in assay [1] worked out at 0.0152 nM; in assay [2] it was 0.156 nM.
For the compound `CC[C@H](C)[C@H](NC(=O)[C@H](CC(C)C)NC(=O)[C@](C)(Cc1ccc(O)cc1)NC(=O)[C@H](CCCCNC(=O)CCOCCOCCOCCOCCOCCOCCNC(=O)CC[C@H](NC(=O)CCCCCCCCCCCCC(=O)O)C(=O)O)NC(=O)[C@@H](NC(=O)[C@H](Cc1ccccc1)NC(=O)[C@H](CCCN)NC(=O)C(C)(C)NC(=O)[C@H](CCC(N)=O)NC(=O)[C@H](C)NC(=O)[C@H](CCC(N)=O)NC(=O)[C@H](CCCN)NC(=O)[C@H](CC(=O)O)NC(=O)[C@H](CC(C)C)NC(=O)[C@](C)(CC(C)C)NC(=O)[C@@H](NC(=O)C(C)(C)NC(=O)[C@H](Cc1ccncc1)NC(=O)[C@H](CC(=O)O)NC(=O)[C@H](CO)NC(=O)[C@@H](NC(=O)[C@](C)(Cc1ccccc1F)NC(=O)[C@@H](NC(=O)CNC(=O)[C@H](CCC(=O)O)NC(=O)C(C)(C)NC(=O)[C@@H](N)Cc1ccc(O)cc1)[C@@H](C)O)[C@@H](C)O)[C@@H](C)CC)[C@@H](C)CC)C(=O)N[C@@H](CCCCNC(=O)CCOCCOCCOCCOCCOCCOCCNC(=O)CC[C@H](NC(=O)CCCCCCCCCCCCC(=O)O)C(=O)O)C(=O)NCC(=O)NCC(=O)N1CCC[C@H]1C(=O)N[C@@H](CO)C(=O)N[C@@H](CO)C(=O)NCC(=O)N[C@@H](C)C(=O)N1CCC[C@H]1C(=O)N1CCC[C@H]1C(=O)N1CCC[C@H]1C(=O)N[C@@H](CO)C(N)=O` [Example 466], the maximal effect (Emax) on hGIPR (setting [3]) turned out to be 93.4%; on hGIPR (HEK293, cAMP, 37° C., 0.1% bovine casein, percent of maximal response to GIP(1-42)NH2, arithmetic mean), 98.8%; at hGLP-1R (setting [5]) it was 105%. For the same compound, the concentration for a half-maximal effect (EC50) at hGIPR (setting [4]) is 0.00971 nM; at hGLP-1R (setting [4]), 0.156 nM; at hGCGR (setting [6]), greater than 10100 nM; on hGCGR (setting [7]), greater than 10100 nM. Moreover, the Ki in assay [1] was found to be 0.0199 nM; in assay [2], 0.2 nM.
In the case of `CC[C@H](C)[C@H](NC(=O)[C@H](CC(C)C)NC(=O)[C@](C)(Cc1ccc(O)cc1)NC(=O)[C@@H](CCC(=O)O)NC(=O)[C@@H](NC(=O)[C@H](Cc1ccccc1)NC(=O)[C@H](CCC(=O)O)NC(=O)C(C)(C)NC(=O)[C@H](CCC(N)=O)NC(=O)[C@H](C)NC(=O)[C@H](CCCCNC(=O)COCCOCCNC(=O)COCCOCCNC(=O)CC[C@H](NC(=O)CCCCCCCCCCCCC(=O)O)C(=O)O)NC(=O)[C@H](CCCN)NC(=O)[C@H](CC(=O)O)NC(=O)[C@H](CC(C)C)NC(=O)[C@](C)(CC(C)C)NC(=O)[C@@H](NC(=O)[C@H](CO)NC(=O)[C@H](Cc1ccc2ccccc2c1)NC(=O)[C@H](CC(=O)O)NC(=O)[C@H](CO)NC(=O)[C@@H](NC(=O)[C@](C)(Cc1ccccc1F)NC(=O)[C@@H](NC(=O)CNC(=O)[C@H](CCC(=O)O)NC(=O)C(C)(C)NC(=O)[C@@H](N)Cc1ccc(O)cc1)[C@@H](C)O)[C@@H](C)O)[C@@H](C)CC)[C@@H](C)CC)C(=O)N[C@@H](CCC(=O)O)C(=O)NCC(=O)NCC(=O)N[C@@H](CCCCNC(=O)COCCOCCNC(=O)COCCOCCNC(=O)CC[C@H](NC(=O)CCCCCCCCCCCCC(=O)O)C(=O)O)C(=O)N[C@@H](CO)C(=O)N[C@@H](CO)C(=O)NCC(=O)N[C@@H](C)C(=O)N1CCC[C@H]1C(=O)N1CCC[C@H]1C(=O)N1CCC[C@H]1C(=O)N[C@@H](CO)C(N)=O` [Example 57], the Emax is 92.1 ± 5.54% on hGIPR (setting [8]); 91.5 ± 4.94% at hGIPR (HEK293, percent of maximal response to GIP(1-42)NH2, 37° C., 0.1% bovine casein, arithmetic mean); 114 ± 7.39% at hGLP-1R (HEK293, 0.1% bovine casein and 1.0% human serum albumin, 37° C.). For the same compound, the 50% effective concentration (EC50) was 0.0135 nM at hGIPR (setting [9]), 0.14 nM on hGLP-1R (setting [9]), greater than 9950 nM on hGCGR (setting [10]) and greater than 9950 nM on hGCGR (setting [11]). Further, the inhibitory constant (Ki) in assay [1] is 0.297 nM; in assay [2] it was 4.35 nM.
For the compound `CCCCCCCCCCCC(=O)N[C@@H](CCC(=O)NCCOCCOCC(=O)NCCOCCOCC(=O)NCCCC[C@H](NC(=O)CNC(=O)CNC(=O)[C@H](CCC(=O)O)NC(=O)[C@@H](NC(=O)[C@H](CC(C)C)NC(=O)[C@](C)(Cc1ccc(O)cc1)NC(=O)[C@@H](CCC(=O)O)NC(=O)[C@@H](NC(=O)[C@H](Cc1ccccc1)NC(=O)[C@H](CCC(=O)O)NC(=O)C(C)(C)NC(=O)[C@H](CCC(N)=O)NC(=O)[C@H](C)NC(=O)[C@H](CCCCNC(=O)COCCOCCNC(=O)COCCOCCNC(=O)CC[C@H](NC(=O)CCCCCCCCCCC)C(=O)O)NC(=O)[C@H](CCCN)NC(=O)[C@H](CC(=O)O)NC(=O)[C@H](CC(C)C)NC(=O)[C@](C)(CC(C)C)NC(=O)[C@@H](NC(=O)[C@H](CO)NC(=O)[C@H](Cc1ccncc1)NC(=O)[C@H](CC(=O)O)NC(=O)[C@H](CO)NC(=O)[C@@H](NC(=O)[C@](C)(Cc1ccccc1F)NC(=O)[C@@H](NC(=O)CNC(=O)[C@H](CCC(=O)O)NC(=O)C(C)(C)NC(=O)[C@@H](N)Cc1ccc(O)cc1)[C@@H](C)O)[C@@H](C)O)[C@@H](C)CC)[C@@H](C)CC)[C@@H](C)CC)C(=O)N[C@@H](CO)C(=O)N[C@@H](CO)C(=O)NCC(=O)N[C@@H](C)C(=O)N1CCC[C@H]1C(=O)N1CCC[C@H]1C(=O)N1CCC[C@H]1C(=O)N[C@@H](CO)C(N)=O)C(=O)O` [Example 5], the 50% effective concentration (EC50) at hGIPR (setting [12]) is 0.372 nM; at hGLP-1R (setting [12]), 4.78 nM; on hGLP-1R (setting [9]), 0.057 nM; on hGCGR (setting [10]), greater than 9950 nM; at hGCGR (setting [11]), greater than 9150 nM. The maximal response (Emax) on hGIPR (setting [8]) was determined as 91.2 ± 3.65%. Besides, the Ki in assay [1] came out at 0.0309 nM; in assay [2], 0.154 nM.
